# Columns and labels:
# [1] = target: T1, PTPN2 (Homo sapiens (Human), UniProt P17706); assay: PhosphoSens assay (PTPN2 BCHEM); assay type: biochemical; settings: substrate AQT0264 20 μM, PTPN2 150 pM
# Experimental: A PhosphoSens® kinase assay was performed as described by the vendor (AssayQuant Technologies, Marlborough, MA). Briefly, 1000× solutions of compounds were prepared in DMSO via serial dilution of the 10 mM DMSO stocks using 3-fold intervals in a 384-well reagent plate. 50 nL of the compound dilution series was then added to the corresponding wells of a 384-well assay plate. […] Finally, […] of 5× PTPN2 enzyme stock was added to each well of the assay plate for a final enzyme concentration of 150 pM. Reaction progress curves were collected by sampling fluorescence intensity at the excitation wavelength 360 nm (λex360) and emission wavelength 480 nm (λem480) every 71 seconds for one hour using a Synergy H4 plate reader (BioTek Instruments/Agilent Technologies, Winooski, VT) at room temperature.
# Target sequence in this assay (P17706 whole entry): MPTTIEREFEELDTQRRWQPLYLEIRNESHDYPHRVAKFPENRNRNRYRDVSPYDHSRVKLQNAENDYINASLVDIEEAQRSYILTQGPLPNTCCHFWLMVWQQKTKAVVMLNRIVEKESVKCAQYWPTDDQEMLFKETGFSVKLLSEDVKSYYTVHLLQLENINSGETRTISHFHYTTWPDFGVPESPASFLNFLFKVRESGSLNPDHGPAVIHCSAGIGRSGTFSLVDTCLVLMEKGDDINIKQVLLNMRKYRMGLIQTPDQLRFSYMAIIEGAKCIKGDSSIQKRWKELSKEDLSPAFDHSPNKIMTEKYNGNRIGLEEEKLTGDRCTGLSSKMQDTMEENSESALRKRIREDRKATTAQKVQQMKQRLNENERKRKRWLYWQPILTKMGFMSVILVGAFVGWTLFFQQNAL
# [2] = test system: B16-F10 cells; assay: Cell proliferation assay (CellTiter-Glo) in B16-F10 cells with IFN-gamma; assay type: cell-based; settings: 120 h, mouse IFN-gamma 10 ng/mL, read-out: PTPN2 Prolif 5d B16F10 EC50
# [3] = target: T1, PTPN2; assay: Phosphatase activity assay using DiFMUP as substrate; assay type: biochemical; settings: PTPN2 0.15 nM, 10 mM DTT
# Experimental: The PTPN2 biochemical assay was performed as follows, a 5× stock solution of human PTPN2 (SRP5075, MilliporeSigma, Burlington, MA) and a 1.25× stock solution of DiFMUP (D6567, ThermoFisher Scientific, Waltham, MA), were prepared in 1× reaction buffer consisting of 50 mM HEPES, pH 7.4, 1 mM EDTA, 150 mM NaCl, 0.2 mg/mL BSA, 100 U/mL catalase and 10 mM DTT. […] of the DiFMUP substrate solution, for a final concentration of […] DiFMUP substrate, was added to a Corning 3574 384-well, white, non-binding surface microtiter plate containing […] of serially diluted test compounds prepared in DMSO. The reactions were started with the addition of […] of the enzyme solution, for a final PTPN2 concentration of 0.15 nM, and monitored every 105 seconds for 60 minutes at λEX 360/λEM 460 in a BioTek Synergy HTX plate reader (Agilent Technologies, Santa Clara, CA) at room temperature. The initial linear portions of the progress curves were fit according to a linear equation to yield the slopes and converted to % inhibition based on a value of 100% activity for the no inhibitor treated control. IC50 values of each compound were obtained by fitting the % inhibition-compound concentration curves using Dotmatics software (Dotmatics, Bishops Stortford, Hertfordshire, England),
# Target sequence in this assay (P17706 other isoform, or with tags, fused parts or gaps isoform P17706-2): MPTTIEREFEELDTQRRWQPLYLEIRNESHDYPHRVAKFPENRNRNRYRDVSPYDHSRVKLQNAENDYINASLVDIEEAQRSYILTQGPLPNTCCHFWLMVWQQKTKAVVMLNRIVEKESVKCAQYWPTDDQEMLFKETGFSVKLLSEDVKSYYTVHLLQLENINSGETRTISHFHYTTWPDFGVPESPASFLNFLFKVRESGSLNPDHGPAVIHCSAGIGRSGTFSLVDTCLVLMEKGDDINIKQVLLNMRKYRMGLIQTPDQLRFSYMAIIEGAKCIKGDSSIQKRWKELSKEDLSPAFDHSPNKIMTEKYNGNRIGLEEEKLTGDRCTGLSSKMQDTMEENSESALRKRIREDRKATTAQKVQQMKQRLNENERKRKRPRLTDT
# [4] = test system: phosphorylated STAT1 in B16-F10 cells; assay: Phospho-STAT1 (Tyr701) HTRF assay in B16-F10 cells with IFN-gamma; assay type: cell-based; settings: mouse IFN-gamma 100 ng/mL, 1 hour, read-out: pSTAT1 HTRF B16F10 EC50
# Experimental: B16-F10 cells (ATCC, Manassas, VA, #CRL-6475) were cultured in DMEM growth medium (ThermoFisher Scientific, Waltham, MA, #11995-040) supplemented with 10% heat-inactivated FBS (ThermoFisher Scientific, #16140-071) and 1% pen/strep (ThermoFisher Scientific, #15140-122). The cells were seeded into a white opaque 384-well tissue culture treated microplate (PerkinElmer, Waltham, MA, #6007688) at a density of 10,000 cells/well in 20 uL total volume and incubated overnight at 37 C and 5% CO2. 30 nL of compounds dissolved in DMSO were then transferred from a source plate into target wells with the Echo650 acoustic liquid handler (Beckman Coulter, Indianapolis, IN). Negative control wells received 30 nL of DMSO only (0.15% final concentration). Plates were returned to the incubator for 1 hour and then cells were treated with either 5 uL of growth medium or 5 uL of growth medium containing 500 ng/mL of recombinant mouse IFN-gamma protein (R&D Systems, Minneapolis, MN, #485-MI/CF, 100 ng/mL final concentration) using the Assist automated pipetting platform (INTEGRA Biosciences, Hudson, NH). Plates were incubated at 37 C for 1 hour and assayed for phosphorylated STAT1 protein levels with the phospho-STAT1 (Tyr701) HTRF kit (Cisbio, Bedford, MA, #63ADK026PEH) according to the manufacturer's instructions.
Compound,IC50 [1],EC50 [2],IC50 [3],EC50 [4]
"Cc1cc(NCc2cc(O)c(N3CC(=O)NS3(=O)=O)c(F)c2)ncc1C#N [EXAMPLE 32, 6-[[3-fluoro-5-hydroxy-4-(1,1,4-trioxo-1,2,5-thiadiazolidin-2-yl)phenyl]methylamino]-4-methyl-pyridine-3-carbonitrile]",30 nM,4550 nM,50 nM,2340 nM
"COc1cccnc1NCc1cc(O)c(N2CC(=O)NS2(=O)=O)c(F)c1 [EXAMPLE 34, 5-[2-fluoro-6-hydroxy-4-[[(3-methoxy-2-pyridyl)amino]methyl]phenyl]-1,1-dioxo-1,2,5-thiadiazolidin-3-one]",> 10000 nM,> 15000 nM,10000 nM,> 15000 nM
"COc1cccc(NCc2cc(O)c(N3CC(=O)NS3(=O)=O)c(F)c2)n1 [EXAMPLE 35, 5-[2-fluoro-6-hydroxy-4-[[(6-methoxy-2-pyridyl)amino]methyl]phenyl]-1,1-dioxo-1,2,5-thiadiazolidin-3-one]",80 nM,8660 nM,20 nM,11600 nM
"COc1ccc(NCc2cc(O)c(N3CC(=O)NS3(=O)=O)c(F)c2)nc1OC [EXAMPLE 36, 5-[4-[[(5,6-dimethoxy-2-pyridyl)amino]methyl]-2-fluoro-6-hydroxy-phenyl]-1,1-dioxo-1,2,5-thiadiazolidin-3-one]",20 nM,2180 nM,10 nM,640 nM
"O=C1CN(c2c(O)cc(CNc3ccccn3)cc2F)S(=O)(=O)N1 [EXAMPLE 37, 5-[2-fluoro-6-hydroxy-4-[(2-pyridylamino)methyl]phenyl]-1,1-dioxo-1,2,5-thiadiazolidin-3-one]",30 nM,1260 nM,70 nM,450 nM
"O=C1CN(c2c(O)cc(CNc3ccc(OCc4ccccc4)cn3)cc2F)S(=O)(=O)N1 [EXAMPLE 47, 5-[4-[[(5-benzyloxy-2-pyridyl)amino]methyl]-2-fluoro-6-hydroxy-phenyl]-1,1-dioxo-1,2,5-thiadiazolidin-3-one]",40 nM,13300 nM,1460 nM,6360 nM
"O=C1CN(c2c(O)cc(CN(c3ccc(C(F)(F)F)cn3)C3CC3)cc2F)S(=O)(=O)N1 [EXAMPLE 50, 5-(4-((cyclopropyl(5-(trifluoromethyl)pyridin-2-yl)amino)methyl)-2-fluoro-6-hydroxyphenyl)-1,2,5-thiadiazolidin-3-one 1,1-dioxide]",816 nM,> 15000 nM,3240 nM,> 15000 nM

# Further lines, results first:
IC50 [1],EC50 [2],IC50 [3],EC50 [4],Compound
20 nM,970 nM,40 nM,510 nM,"Cc1cnc(NCc2cc(O)c(N3CC(=O)NS3(=O)=O)c(F)c2)cc1F [EXAMPLE 33, 5-[2-fluoro-4-[[(4-fluoro-5-methyl-2-pyridyl)amino]methyl]-6-hydroxy-phenyl]-1,1-dioxo-1,2,5-thiadiazolidin-3-one]"
10 nM,850 nM,60 nM,540 nM,"COc1ccc(NCc2cc(O)c(N3CC(=O)NS3(=O)=O)c(F)c2)nc1 [EXAMPLE 38, 5-[2-fluoro-6-hydroxy-4-[[(5-methoxy-2-pyridyl)amino]methyl]phenyl]-1,1-dioxo-1,2,5-thiadiazolidin-3-one]"
7 nM,1770 nM,60 nM,1490 nM,"CC(C)c1ccc(NCc2cc(O)c(N3CC(=O)NS3(=O)=O)c(F)c2)nc1 [EXAMPLE 45, 5-[2-fluoro-6-hydroxy-4-[[(5-isopropyl-2-pyridyl)amino]methyl]phenyl]-1,1-dioxo-1,2,5-thiadiazolidin-3-one]"
6 nM,3510 nM,10 nM,4100 nM,"O=C1CN(c2c(O)cc(CNc3cc(OCc4ccccc4)ccn3)cc2F)S(=O)(=O)N1 [EXAMPLE 46, 5-[4-[[(4-benzyloxy-2-pyridyl)amino]methyl]-2-fluoro-6-hydroxy-phenyl]-1,1-dioxo-1,2,5-thiadiazolidin-3-one]"

# Source: US20240180886A1, “INHIBITORS OF PROTEIN TYROSINE PHOSPHATASE, COMPOSITIONS, AND METHODS OF USE” (BRISTOL-MYERS SQUIBB COMPANY, priority 2022, published 2024)
